From ChEMBL document CHEMBL1201862, “PubChem BioAssay data set” (2004) come the findings set out here.

Usually AC50 stands for the concentration at which the activity in the assay is half-maximal. In general, EC50 refers to the concentration needed to bring the measured effect to its halfway point.

Test [1] has as its target DNA dC->dU-editing enzyme APOBEC-3A (Homo sapiens, UniProt P31941). The test can be described thus: Dose Response confirmation of small molecule APOBEC3A DNA Deaminase Inhibitors via a fluorescence-based single-stranded DNA deaminase assay. [Related pubchem assays (depositor defined):AID493011, AID493024]. In kind it is functional.
Test [2] has as its target T1, Ubiquitin-conjugating enzyme E2 N (Homo sapiens, UniProt P61088).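 Also: Dose-response confirmation in a TR-FRET assay detecting UBC13-driven polyubiquitin chain formation, inhibition measured.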
T1 sequence (P61088 whole entry): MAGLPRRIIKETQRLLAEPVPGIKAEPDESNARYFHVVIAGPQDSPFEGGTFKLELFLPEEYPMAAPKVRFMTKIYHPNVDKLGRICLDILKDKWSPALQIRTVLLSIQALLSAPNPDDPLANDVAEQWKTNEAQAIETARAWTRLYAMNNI
The test is classed as functional.

The target in test [3] is DNA dC->dU-editing enzyme APOBEC-3G (Homo sapiens, UniProt Q9HC16). The test is classed as functional.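 Also: Dose-response counterscreen measuring inhibition of APOBEC3G DNA deaminase activity, run while confirming APOBEC3A inhibitors.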
DNA dC->dU-editing enzyme APOBEC-3G, sequence (Q9HC16 whole entry): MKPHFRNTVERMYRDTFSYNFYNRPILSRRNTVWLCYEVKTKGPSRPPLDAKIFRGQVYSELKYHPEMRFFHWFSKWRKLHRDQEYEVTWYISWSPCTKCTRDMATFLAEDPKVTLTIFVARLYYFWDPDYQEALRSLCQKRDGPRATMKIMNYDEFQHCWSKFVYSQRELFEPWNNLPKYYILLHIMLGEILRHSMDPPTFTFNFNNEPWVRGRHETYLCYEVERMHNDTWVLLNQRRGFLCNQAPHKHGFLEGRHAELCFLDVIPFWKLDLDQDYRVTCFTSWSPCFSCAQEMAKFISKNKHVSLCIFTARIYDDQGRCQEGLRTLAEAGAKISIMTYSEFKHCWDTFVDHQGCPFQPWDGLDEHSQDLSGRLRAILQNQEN
For test [4], the target named is T2, Microphthalmia-associated transcription factor (Homo sapiens, UniProt O75030).
T2 sequence (O75030 whole entry): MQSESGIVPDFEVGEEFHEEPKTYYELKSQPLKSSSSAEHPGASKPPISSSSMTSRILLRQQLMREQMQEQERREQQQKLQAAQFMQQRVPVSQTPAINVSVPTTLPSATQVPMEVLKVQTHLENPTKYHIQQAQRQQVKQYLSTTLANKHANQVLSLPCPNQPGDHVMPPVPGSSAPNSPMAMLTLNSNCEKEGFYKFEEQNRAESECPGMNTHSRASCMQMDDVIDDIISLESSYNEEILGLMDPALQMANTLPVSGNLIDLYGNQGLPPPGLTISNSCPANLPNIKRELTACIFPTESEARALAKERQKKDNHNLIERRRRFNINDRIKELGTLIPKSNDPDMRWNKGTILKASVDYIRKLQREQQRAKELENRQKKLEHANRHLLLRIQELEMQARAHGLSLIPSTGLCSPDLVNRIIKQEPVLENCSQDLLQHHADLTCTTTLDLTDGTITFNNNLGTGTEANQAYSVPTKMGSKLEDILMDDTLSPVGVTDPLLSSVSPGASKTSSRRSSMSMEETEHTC
The test can be described thus: reducers of TRPM1 reporter luminescence, concentration series – cell-based, SK-MEL-5, cherry-picked, set 3, MITF inhibitor project, dose response (AID 493073).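 Also: SK-MEL-5 melanoma cells with luciferase driven by the MITF target TRPM1 promoter.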 The test is classed as functional.

Test [5] deals with A-375. The test can be described thus: MITF: Counter assay: A375 proliferation Measured in Cell-Based System Using Plate Reader - 2084-03_Inhibitor_Dose_DryPowder_Activity. [Related pubchem assays (depositor defined):AID488944]. The test is classed as functional. The conditions noted are these: Homo sapiens.
Test [6] concerns A-375. In words: proliferation inhibition in MITF-low A375 cells – cell-based, cherry-pick samples, set 2, counter-screen for MITF modulator project, dose response (AID 540335). In kind it is functional. Conditions: Homo sapiens. Background: The purpose of a counterscreen is to sort out artefacts and off-target activity.
A further test has as its system INS1. The test can be described thus: INS-1E survival protection against cytokine death – cell-based, luminescence, retest, dose response (AID 449756).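 Also: cell death triggered by IL-1 beta plus TNF-alpha plus IFN-gamma mixture; protective hits raise ATP signal compared with cytokine alone wells.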 In kind it is functional. The conditions noted are these: Rattus norvegicus.
A further test addresses Beta-galactosidase (Escherichia coli, UniProt Q8VNN2). In words: detection-enzyme interference by beta-gal modulators – biochemical, E. coli enzyme, set 3, artefact control for CCR6 antagonist project, dose response (AID 504712). In kind it is functional.
Test [7] concerns the target T3, Polyadenylate-binding protein 1 (Homo sapiens, UniProt P11940). In words: MLLE binding blockers, Cy5 peptide tracer – biochemical, fluorescence polarization, Cy5-PAM2 peptide, secondary, miRNA deadenylation inhibitor project, dose response (AID 602260). The conditions noted are these: read-out: IC50_Mean. The test is classed as functional.
Test [8] has as its target T3, Polyadenylate-binding protein 1. In words: MLLE domain peptide-binding blockers, IC50 – biochemical, fluorescence polarization, FITC-PAM2 peptide, dose response (AID 602259). The conditions noted are these: read-out: IC50_Mean. The test is classed as functional. A general note: Polarisation of emitted light reports the rotation of a fluorescent probe.
The target of another test is Cytochrome P450 2C9 (Homo sapiens, UniProt P11712).
Cytochrome P450 2C9, sequence (P11712 whole entry): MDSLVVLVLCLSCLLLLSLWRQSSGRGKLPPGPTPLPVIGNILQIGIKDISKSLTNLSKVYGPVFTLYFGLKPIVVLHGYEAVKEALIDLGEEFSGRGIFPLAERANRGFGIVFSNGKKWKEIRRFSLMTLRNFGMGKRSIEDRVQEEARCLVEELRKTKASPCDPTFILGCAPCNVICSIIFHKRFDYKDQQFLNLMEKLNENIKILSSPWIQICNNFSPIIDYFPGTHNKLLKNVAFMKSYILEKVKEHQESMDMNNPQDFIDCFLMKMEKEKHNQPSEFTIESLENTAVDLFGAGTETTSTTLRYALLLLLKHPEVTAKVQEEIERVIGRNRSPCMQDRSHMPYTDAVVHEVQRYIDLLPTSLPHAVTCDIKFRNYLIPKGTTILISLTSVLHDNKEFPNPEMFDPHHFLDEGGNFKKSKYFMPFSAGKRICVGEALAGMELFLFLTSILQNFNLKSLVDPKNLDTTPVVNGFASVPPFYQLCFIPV
Test [9] in a line: Luminescence Cell-Based Dose Confirmation HTS to Identify Activators of 5'UTR Stem-Loop Driven Alpha-Synuclein mRNA Translation in H4 Neuroglioblastoma Cells. [Related pubchem assays: 1829 (Project Summary), 1814 (Primary HTS)]. The test is classed as functional.
The nature of test [10]: Luminescence Cell-Based Dose Response HTS to Identify Activators of Luciferase Translation or Activity in H4 […] Cells. [Related pubchem assays: 1829 (Project Summary), 1814 (Primary HTS)]. In kind it is functional.
The nature of test [11]: cells. In kind it is functional, cell-based.
In the next test the test system is H4. The test can be described thus: Luminescence Cell-Based Dose Response HTS to Identify Activators of 5'UTR Stem-Loop Driven Prion Protein mRNA Translation in H4 Neuroglioblastoma Cells. [Related pubchem assays: 1829 (Project Summary), 1814 (Primary HTS)]. In kind it is functional. Conditions: Homo sapiens.
The nature of test [12]: cells. The test is classed as functional, cell-based. This is another data set of the same source.
The test system of the next test is HEK293. In words: cells. In kind it is functional, cell-based. The conditions noted are these: Homo sapiens.
Test [13] concerns the target T4, Nuclear receptor subfamily 0 group B member 1 (Homo sapiens, UniProt P51843).
T4 sequence (P51843 whole entry): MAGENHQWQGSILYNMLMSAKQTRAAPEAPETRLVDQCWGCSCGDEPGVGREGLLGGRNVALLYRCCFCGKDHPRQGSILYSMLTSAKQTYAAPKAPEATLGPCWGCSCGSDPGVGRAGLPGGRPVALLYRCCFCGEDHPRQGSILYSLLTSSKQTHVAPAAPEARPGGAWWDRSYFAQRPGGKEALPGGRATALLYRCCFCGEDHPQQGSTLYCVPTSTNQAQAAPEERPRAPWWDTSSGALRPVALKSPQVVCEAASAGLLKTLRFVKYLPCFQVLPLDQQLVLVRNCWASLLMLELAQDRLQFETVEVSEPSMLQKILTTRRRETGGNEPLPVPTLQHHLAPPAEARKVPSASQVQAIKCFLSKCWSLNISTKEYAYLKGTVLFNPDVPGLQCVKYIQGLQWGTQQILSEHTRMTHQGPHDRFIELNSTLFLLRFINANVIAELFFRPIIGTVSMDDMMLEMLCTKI
In words: Luminescence-based cell-based high throughput dose response assay for inhibitors of the orphan nuclear receptor subfamily 0, group B, member 1 (DAX1; NR0B1). [Related pubchem assays (depositor defined):AID504766, AID504790]. In kind it is functional.

Test [14] in a line: viability loss in HepG2 hepatoma cells – cell-based, ATP luminescence, cherry-pick, activator set 2, cytotoxicity control, dose response (AID 1053143). The test is classed as functional.
The target of test [15] is T5, Oxysterols receptor LXR-beta (Homo sapiens, UniProt P55055).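 Also: agonist activity at LXR measured by a cell-based luminescence readout across a dose range, run as a counterscreen for daf-12 agonists; HEK293 cells with Gal4-LXR fusion and GAL4-driven luciferase reporter; potency for activation of Gal4-LXR reporter so compounds are agonists.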
T5 sequence (P55055 whole entry): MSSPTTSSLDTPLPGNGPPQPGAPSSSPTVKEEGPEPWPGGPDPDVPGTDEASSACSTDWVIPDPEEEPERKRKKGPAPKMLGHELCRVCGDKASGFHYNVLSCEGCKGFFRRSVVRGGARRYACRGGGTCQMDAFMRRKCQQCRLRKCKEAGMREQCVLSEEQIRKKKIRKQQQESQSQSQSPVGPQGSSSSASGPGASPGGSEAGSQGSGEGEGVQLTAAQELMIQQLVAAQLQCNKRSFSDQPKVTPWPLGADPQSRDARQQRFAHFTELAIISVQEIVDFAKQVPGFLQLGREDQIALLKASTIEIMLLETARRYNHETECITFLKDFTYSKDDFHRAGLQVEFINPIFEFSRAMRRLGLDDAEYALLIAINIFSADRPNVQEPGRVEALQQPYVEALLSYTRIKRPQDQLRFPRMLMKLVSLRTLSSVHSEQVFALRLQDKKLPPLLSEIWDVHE
In kind it is functional, cell-based.

Test [16] concerns the target Voltage-gated inwardly rectifying potassium channel KCNH2 (Homo sapiens, UniProt Q12809). The conditions noted are these: Potency.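 Also: confirmatory quantitative high-throughput screen measuring inhibition of hERG channel activity.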

Counter-ions that a name gives are not always drawn. Activity calls are given as the source filed them.

Voltage-gated inwardly rectifying potassium channel KCNH2, sequence (Q12809 whole entry): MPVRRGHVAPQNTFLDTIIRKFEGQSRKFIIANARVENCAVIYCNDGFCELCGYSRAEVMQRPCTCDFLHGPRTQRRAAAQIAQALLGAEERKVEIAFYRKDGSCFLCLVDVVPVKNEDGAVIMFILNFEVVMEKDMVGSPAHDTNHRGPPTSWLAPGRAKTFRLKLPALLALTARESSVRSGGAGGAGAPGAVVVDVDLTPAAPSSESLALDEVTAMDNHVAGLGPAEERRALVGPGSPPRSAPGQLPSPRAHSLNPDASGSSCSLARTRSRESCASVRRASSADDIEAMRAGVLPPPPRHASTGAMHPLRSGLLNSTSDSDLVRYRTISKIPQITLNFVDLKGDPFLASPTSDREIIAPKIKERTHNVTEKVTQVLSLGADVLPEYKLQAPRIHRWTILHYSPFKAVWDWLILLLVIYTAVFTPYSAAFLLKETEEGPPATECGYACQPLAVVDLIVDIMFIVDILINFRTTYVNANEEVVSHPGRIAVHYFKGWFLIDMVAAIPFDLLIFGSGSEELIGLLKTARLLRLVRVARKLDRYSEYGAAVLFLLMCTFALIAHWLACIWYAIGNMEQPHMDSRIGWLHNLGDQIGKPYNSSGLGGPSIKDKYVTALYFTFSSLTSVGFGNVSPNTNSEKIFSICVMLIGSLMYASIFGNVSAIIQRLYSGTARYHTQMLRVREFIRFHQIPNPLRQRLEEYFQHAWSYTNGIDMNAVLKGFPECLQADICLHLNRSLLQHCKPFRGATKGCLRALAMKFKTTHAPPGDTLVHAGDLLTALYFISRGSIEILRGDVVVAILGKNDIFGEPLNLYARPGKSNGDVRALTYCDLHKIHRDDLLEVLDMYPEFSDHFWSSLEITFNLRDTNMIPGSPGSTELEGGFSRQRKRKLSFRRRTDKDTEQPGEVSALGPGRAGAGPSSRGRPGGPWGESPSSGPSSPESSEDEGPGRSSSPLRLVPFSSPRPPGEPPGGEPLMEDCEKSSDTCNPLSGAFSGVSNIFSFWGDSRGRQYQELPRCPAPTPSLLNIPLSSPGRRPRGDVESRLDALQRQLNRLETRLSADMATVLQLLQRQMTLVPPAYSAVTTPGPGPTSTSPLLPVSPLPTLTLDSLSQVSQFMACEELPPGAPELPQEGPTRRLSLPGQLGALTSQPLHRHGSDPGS
T3 sequence (P11940 whole entry, the tested form may be a part): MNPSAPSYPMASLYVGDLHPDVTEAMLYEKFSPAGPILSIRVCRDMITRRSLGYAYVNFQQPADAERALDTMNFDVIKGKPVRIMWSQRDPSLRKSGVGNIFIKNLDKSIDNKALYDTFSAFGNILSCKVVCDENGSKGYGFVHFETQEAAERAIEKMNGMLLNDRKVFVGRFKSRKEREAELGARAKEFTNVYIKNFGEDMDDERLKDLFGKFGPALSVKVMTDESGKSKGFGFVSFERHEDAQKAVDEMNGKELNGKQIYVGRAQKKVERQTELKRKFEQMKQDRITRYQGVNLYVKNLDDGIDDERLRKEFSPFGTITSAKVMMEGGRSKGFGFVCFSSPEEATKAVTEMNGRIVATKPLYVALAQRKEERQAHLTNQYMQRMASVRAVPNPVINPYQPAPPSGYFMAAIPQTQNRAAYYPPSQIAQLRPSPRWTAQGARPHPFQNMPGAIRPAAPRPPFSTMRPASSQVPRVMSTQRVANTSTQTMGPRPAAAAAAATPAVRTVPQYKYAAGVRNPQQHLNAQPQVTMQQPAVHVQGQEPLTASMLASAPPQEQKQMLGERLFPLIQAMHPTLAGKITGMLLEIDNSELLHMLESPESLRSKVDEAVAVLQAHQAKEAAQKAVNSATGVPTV
DNA dC->dU-editing enzyme APOBEC-3A, sequence (P31941 whole entry): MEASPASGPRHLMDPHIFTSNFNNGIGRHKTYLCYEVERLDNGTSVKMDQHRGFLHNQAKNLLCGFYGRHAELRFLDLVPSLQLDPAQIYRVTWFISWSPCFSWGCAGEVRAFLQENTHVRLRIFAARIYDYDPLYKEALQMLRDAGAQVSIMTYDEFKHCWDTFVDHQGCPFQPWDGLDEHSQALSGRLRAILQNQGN
Beta-galactosidase, sequence (Q8VNN2 whole entry): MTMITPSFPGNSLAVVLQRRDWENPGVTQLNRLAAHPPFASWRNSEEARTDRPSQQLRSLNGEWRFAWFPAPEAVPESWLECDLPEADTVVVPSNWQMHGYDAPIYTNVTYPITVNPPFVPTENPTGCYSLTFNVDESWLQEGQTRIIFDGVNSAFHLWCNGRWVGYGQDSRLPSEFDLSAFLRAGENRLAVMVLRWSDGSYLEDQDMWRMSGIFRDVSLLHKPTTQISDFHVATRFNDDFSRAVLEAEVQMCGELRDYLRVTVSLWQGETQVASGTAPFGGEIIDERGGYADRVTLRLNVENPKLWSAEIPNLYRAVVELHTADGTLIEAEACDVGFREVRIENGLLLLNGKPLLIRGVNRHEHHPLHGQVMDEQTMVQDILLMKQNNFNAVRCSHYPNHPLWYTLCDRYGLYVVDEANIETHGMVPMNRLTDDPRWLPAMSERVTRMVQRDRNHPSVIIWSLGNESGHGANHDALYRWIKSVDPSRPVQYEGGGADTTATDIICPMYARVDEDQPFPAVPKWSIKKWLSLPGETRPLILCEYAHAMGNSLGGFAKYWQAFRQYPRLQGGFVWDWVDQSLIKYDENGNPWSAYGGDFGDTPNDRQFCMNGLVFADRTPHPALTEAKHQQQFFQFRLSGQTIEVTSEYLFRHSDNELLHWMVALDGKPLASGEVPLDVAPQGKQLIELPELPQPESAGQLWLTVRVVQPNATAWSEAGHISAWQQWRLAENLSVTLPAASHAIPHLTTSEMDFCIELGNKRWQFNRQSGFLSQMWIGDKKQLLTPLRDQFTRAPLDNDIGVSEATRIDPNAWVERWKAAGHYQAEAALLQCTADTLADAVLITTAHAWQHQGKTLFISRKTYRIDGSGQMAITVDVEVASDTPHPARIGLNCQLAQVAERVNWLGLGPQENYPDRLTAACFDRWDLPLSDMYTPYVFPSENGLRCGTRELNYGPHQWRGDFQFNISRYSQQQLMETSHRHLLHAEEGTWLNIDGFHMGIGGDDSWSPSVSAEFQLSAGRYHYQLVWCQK

`COC(=O)C1=C(C)N(Cc2ccccc2)C(NCCc2cccnc2)=N[C@H]1c1ccc(Br)cc1`: the IC50 in test [1] was 3.04 µM (active); in test [2], > 20 µM (inactive); in [3] it was 4.68 µM (active). For the same compound, the figures for the AC50 (in test [4]; in the test with A-375 [5]; in the test on A-375 [6]) were 17.8 µM (active), > 11 µM (active) and > 11 µM (active), respectively.
In the case of `CC(C)Oc1ccc(C(CCN)C2CCCCC2)cc1` (stereo unspecified), the AC50 in test [4] is 9.99 µM (active); in the test with A-375 [5], 17.7 µM (active); in the test with INS1, 7.47 µM (active).
With `O=C1NC(=S)NC(=O)C1=Cc1cccc2cc3ccccc3cc12`, the IC50 on Beta-galactosidase is > 66.6 µM (inactive); in test [7], > 66 µM (inactive); in test [8], > 66 µM (inactive). Moreover, the AC50 was 4.81 µM (active) in test [4], > 35 µM (active) in the test on A-375 [5], > 35 µM (active) in the test with A-375 [6] and 3.16 µM (inconclusive) at Cytochrome P450 2C9.
Regarding `O=C(Nc1ccccc1O)c1ccc(NS(=O)(=O)c2cccc3cccnc23)cc1`, the EC50 in test [9] is 11.2 µM (active); in test [10], 10.7 µM (active); in “cells [11]” it was 8.05 µM (active); with H4, 34 µM (active); in the test “cells [12]” it was > 350 µM (not active); in test [15], > 67.5 µM (inactive). For the same compound, the values for the IC50 (in the test on HEK293; in test [13]) were 0.695 µM (active) and > 67.5 µM (inactive), respectively. Further, the AC50 in test [14] was 9.01 µM (active).
As to `CCOC(=O)N1CCN(C(=O)COc2cc(=O)n(CC)c3ccccc23)CC1`, the IC50 (in the test with HEK293; in test [13]) was > 67.5 µM (inactive) in each case.
Take `COc1ccc(CC(=O)NC2CCSc3ccccc32)c(OC)c1` (stereo unspecified): the IC50 (in the test on HEK293; in test [13]) was > 67.6 µM (inactive) throughout.
With `COC[C@H]1OC(=O)c2coc3c2[C@@]1(C)C1=C(C3=O)C2CCC(=O)[C@@]2(C)C[C@H]1OC(C)=O` (stereo partly specified), in [16], the AC50 is 17.8 µM (inconclusive).
Take `C#CCOC(=O)C1=CCCN(C)C1` [ARECAIDINE PROPARGYL ESTER HYDROBROMIDE]: the AC50 in test [16] was 35.5 µM (inconclusive).
